Experiments:
MtDXR W203F = MtDXR W203F (Mycobacterium tuberculosis, UniProt P9WNS1, W203F)
MtDXR W203Y = MtDXR W203Y (Mycobacterium tuberculosis, UniProt P9WNS1, W203Y)

O=CN(O)CCCP(=O)(O)O [fosmidomycin]
binding enthalpy more exothermic than wild type by (MtDXR W203F): 2.8 kcal/mol | enthalpy share of total binding energy (enthalpy-driven binding) (MtDXR W203F): 75% | ΔG° (MtDXR W203F; pH 7.5): –10.10 ± 0.05 kcal/mol | ΔH° (MtDXR W203F; pH 7.5): –7.6 ± 0.7 kcal/mol | –TΔS° (MtDXR W203F; pH 7.5): –2.5 ± 0.7 kcal/mol | binding enthalpy more exothermic than wild type by (MtDXR W203Y): 5.4 kcal/mol | enthalpy share of total binding energy (enthalpy-driven binding) (MtDXR W203Y): 91% | ΔG° (MtDXR W203Y; pH 7.5): –11.26 ± 0.19 kcal/mol | ΔH° (MtDXR W203Y; pH 7.5): –10.2 ± 0.3 kcal/mol | –TΔS° (MtDXR W203Y; pH 7.5): –1.0 ± 0.4 kcal/mol

Source: PMC4045324 (Biochemistry, 2014)
